Measured values taken from patent US20090227507A1, “Angiotensin (1-7) Dosage Forms and Uses Thereof” (UNIVERSITY OF SOUTHERN CALIFORNIA, priority 2008, published 2009).

Assay: Unspecified test of effectiveness of AII fragments

Row | Substance | effectiveness
1 | His-Pro-Phe [AII(6-8)] | not to be effective
2 | Tyr-Ile-His-Pro-Phe (YIHPF; printed: Tyr-Ile-His-Pro-Phe) [AII(4-8)] | not to be effective
